Measured values as given in the CheMixHub viscosity set.

Assay: xn = mol fraction of the nth substance listed

CCCCCCO + CCCCCC
Details	viscosity [mPa·s]
293.15 K, 100 kPa, x1 = 0.0277	0.3397
293.15 K, 100 kPa, x1 = 0.05	0.3453
293.15 K, 100 kPa, x1 = 0.1	0.3793
293.15 K, 100 kPa, x1 = 0.1976	0.4607
293.15 K, 100 kPa, x1 = 0.2999	0.5855
293.15 K, 100 kPa, x1 = 0.3999	0.7701
293.15 K, 100 kPa, x1 = 0.5	1.068
293.15 K, 100 kPa, x1 = 0.6002	1.481
293.15 K, 100 kPa, x1 = 0.7	1.971
293.15 K, 100 kPa, x1 = 0.8	2.71
293.15 K, 100 kPa, x1 = 0.9096	3.927
298.15 K, 100 kPa, x1 = 0.0277	0.3247
298.15 K, 100 kPa, x1 = 0.05	0.329
298.15 K, 100 kPa, x1 = 0.1	0.3597
298.15 K, 100 kPa, x1 = 0.1976	0.433
298.15 K, 100 kPa, x1 = 0.2999	0.5506
298.15 K, 100 kPa, x1 = 0.3999	0.7084
298.15 K, 100 kPa, x1 = 0.5	0.9696
298.15 K, 100 kPa, x1 = 0.6002	1.328
298.15 K, 100 kPa, x1 = 0.7	1.765
298.15 K, 100 kPa, x1 = 0.8	2.381
298.15 K, 100 kPa, x1 = 0.9096	3.398
298.15 K, 101.33 kPa, x2 = 0.1327	3.088
298.15 K, 101.33 kPa, x2 = 0.1854	2.578
298.15 K, 101.33 kPa, x2 = 0.2308	2.207
298.15 K, 101.33 kPa, x2 = 0.3137	1.632
298.15 K, 101.33 kPa, x2 = 0.4404	1.072
298.15 K, 101.33 kPa, x2 = 0.4841	0.941
298.15 K, 101.33 kPa, x2 = 0.6117	0.648
298.15 K, 101.33 kPa, x2 = 0.7122	0.501
298.15 K, 101.33 kPa, x2 = 0.8046	0.408
298.15 K, 101.33 kPa, x2 = 0.8997	0.338
298.15 K, 101.33 kPa, x2 = 0.9493	0.309
303 K, 101.33 kPa, x1 = 0.0995	0.3348
303 K, 101.33 kPa, x1 = 0.1996	0.4052
303 K, 101.33 kPa, x1 = 0.2995	0.5115
303 K, 101.33 kPa, x1 = 0.4012	0.6522
303 K, 101.33 kPa, x1 = 0.5004	0.8535
303 K, 101.33 kPa, x1 = 0.6	1.167
303 K, 101.33 kPa, x1 = 0.6983	1.608
303 K, 101.33 kPa, x1 = 0.7965	2.139
303 K, 101.33 kPa, x1 = 0.8984	2.867
303.15 K, 100 kPa, x1 = 0.0277	0.3116
303.15 K, 100 kPa, x1 = 0.05	0.3153
303.15 K, 100 kPa, x1 = 0.1	0.343
303.15 K, 100 kPa, x1 = 0.1976	0.4107
303.15 K, 100 kPa, x1 = 0.2999	0.5173
303.15 K, 100 kPa, x1 = 0.3999	0.6524
303.15 K, 100 kPa, x1 = 0.5	0.885
303.15 K, 100 kPa, x1 = 0.6002	1.194
303.15 K, 100 kPa, x1 = 0.7	1.569
303.15 K, 100 kPa, x1 = 0.8	2.091
303.15 K, 100 kPa, x1 = 0.9096	2.945
303.15 K, 101.33 kPa, x2 = 0.0954	2.883
303.15 K, 101.33 kPa, x2 = 0.1918	2.18
303.15 K, 101.33 kPa, x2 = 0.2892	1.6
303.15 K, 101.33 kPa, x2 = 0.3876	1.19
303.15 K, 101.33 kPa, x2 = 0.487	0.8951
303.15 K, 101.33 kPa, x2 = 0.5874	0.6793
303.15 K, 101.33 kPa, x2 = 0.689	0.5301
303.15 K, 101.33 kPa, x2 = 0.7915	0.4188
303.15 K, 101.33 kPa, x2 = 0.8952	0.3557
308.15 K, 100 kPa, x1 = 0.0277	0.2979
308.15 K, 100 kPa, x1 = 0.05	0.3006
308.15 K, 100 kPa, x1 = 0.1	0.3256
308.15 K, 100 kPa, x1 = 0.1976	0.3877
308.15 K, 100 kPa, x1 = 0.2999	0.4855
308.15 K, 100 kPa, x1 = 0.3999	0.6019
308.15 K, 100 kPa, x1 = 0.5	0.8102
308.15 K, 100 kPa, x1 = 0.6002	1.08
308.15 K, 100 kPa, x1 = 0.7	1.406
308.15 K, 100 kPa, x1 = 0.8	1.847
308.15 K, 100 kPa, x1 = 0.9096	2.566
313 K, 101.33 kPa, x1 = 0.0995	0.3081
313 K, 101.33 kPa, x1 = 0.1996	0.3673
313 K, 101.33 kPa, x1 = 0.2995	0.4576
313 K, 101.33 kPa, x1 = 0.4012	0.5618
313 K, 101.33 kPa, x1 = 0.5004	0.725
313 K, 101.33 kPa, x1 = 0.6	0.9609
313 K, 101.33 kPa, x1 = 0.6983	1.287
313 K, 101.33 kPa, x1 = 0.7965	1.673
313 K, 101.33 kPa, x1 = 0.8984	2.185
313.15 K, 100 kPa, x1 = 0.0277	0.2857
313.15 K, 100 kPa, x1 = 0.05	0.2883
313.15 K, 100 kPa, x1 = 0.1	0.3109
313.15 K, 100 kPa, x1 = 0.1976	0.3694
313.15 K, 100 kPa, x1 = 0.2999	0.4503
313.15 K, 100 kPa, x1 = 0.3999	0.555
313.15 K, 100 kPa, x1 = 0.5	0.7462
313.15 K, 100 kPa, x1 = 0.6002	0.9846
313.15 K, 100 kPa, x1 = 0.7	1.272
313.15 K, 100 kPa, x1 = 0.8	1.644
313.15 K, 100 kPa, x1 = 0.9096	2.251
313.15 K, 101.33 kPa, x2 = 0.0954	2.219
313.15 K, 101.33 kPa, x2 = 0.1918	1.71
313.15 K, 101.33 kPa, x2 = 0.2892	1.295
313.15 K, 101.33 kPa, x2 = 0.3876	0.9896
313.15 K, 101.33 kPa, x2 = 0.487	0.7581
313.15 K, 101.33 kPa, x2 = 0.5874	0.5894
313.15 K, 101.33 kPa, x2 = 0.689	0.4749
313.15 K, 101.33 kPa, x2 = 0.7915	0.3791
313.15 K, 101.33 kPa, x2 = 0.8952	0.3285
318.15 K, 100 kPa, x1 = 0.0277	0.2746
318.15 K, 100 kPa, x1 = 0.05	0.2766
318.15 K, 100 kPa, x1 = 0.1	0.297
318.15 K, 100 kPa, x1 = 0.1976	0.3511
318.15 K, 100 kPa, x1 = 0.2999	0.4266
318.15 K, 100 kPa, x1 = 0.3999	0.5178
318.15 K, 100 kPa, x1 = 0.5	0.6859
318.15 K, 100 kPa, x1 = 0.6002	0.8985
318.15 K, 100 kPa, x1 = 0.7	1.155
318.15 K, 100 kPa, x1 = 0.8	1.48
318.15 K, 100 kPa, x1 = 0.9096	1.987
323 K, 101.33 kPa, x1 = 0.0995	0.2787
323 K, 101.33 kPa, x1 = 0.1996	0.3303
323 K, 101.33 kPa, x1 = 0.2995	0.4051
323 K, 101.33 kPa, x1 = 0.4012	0.5023
323 K, 101.33 kPa, x1 = 0.5004	0.6113
323 K, 101.33 kPa, x1 = 0.6	0.7992
323 K, 101.33 kPa, x1 = 0.6983	1.049
323 K, 101.33 kPa, x1 = 0.7965	1.34
323 K, 101.33 kPa, x1 = 0.8984	1.721
323.15 K, 100 kPa, x2 = 0.25	1.211
323.15 K, 101.33 kPa, x2 = 0.0954	1.682
323.15 K, 101.33 kPa, x2 = 0.1918	1.32
323.15 K, 101.33 kPa, x2 = 0.2892	1.02
323.15 K, 101.33 kPa, x2 = 0.3876	0.8098
323.15 K, 101.33 kPa, x2 = 0.487	0.6263
323.15 K, 101.33 kPa, x2 = 0.5874	0.5103
323.15 K, 101.33 kPa, x2 = 0.689	0.404
323.15 K, 101.33 kPa, x2 = 0.7915	0.3396
323.15 K, 101.33 kPa, x2 = 0.8952	0.2844
